Experimental data reported in ChEMBL document CHEMBL2413072, “Synthesis and in vitro anticancer studies of novel C-2 arylidene congeners of lantadenes” (2013).

Assays:
Type in all cases: functional
[1] = test system: PC-3; assay: Growth inhibition of human PC3 cells assessed as cell growth at 10^-8 M by sulforhodamine B assay; settings: read-out: Activity
[2] = test system: HCT-15; assay: Growth inhibition of human HCT15 cells assessed as cell growth at 10^-8 M by sulforhodamine B assay; settings: read-out: Activity
[3] = test system: KM12; assay: Growth inhibition of human KM12 cells assessed as cell growth at 10^-4 M by sulforhodamine B assay; settings: read-out: Activity
[4] = test system: A549; assay: Growth inhibition of human A549/ATCC cells assessed as cell growth at 10^-7 M by sulforhodamine B assay; settings: read-out: Activity
[5] = test system: SR; assay: Growth inhibition of human SR cells by sulforhodamine B assay
[6] = test system: UACC-62; assay: Growth inhibition of human UACC62 cells assessed as cell growth at 10^-6 M by sulforhodamine B assay; settings: read-out: Activity
[7] = test system: OVCAR-8; assay: Growth inhibition of human OVCAR8 cells by sulforhodamine B assay
[8] = test system: NCI-H460; assay: Growth inhibition of human NCI-H460 cells assessed as cell growth at 10^-7 M by sulforhodamine B assay; settings: read-out: Activity
[9] = test system: NCI-H322M; assay: Growth inhibition of human NCI-H322M cells assessed as cell growth at 10^-4 M by sulforhodamine B assay; settings: read-out: Activity
[10] = test system: MDA-MB-468; assay: Growth inhibition of human MDA-MB-468 cells assessed as cell growth at 10^-4 M by sulforhodamine B assay; settings: read-out: Activity
[11] = test system: SF-295; assay: Growth inhibition of human SF295 cells assessed as cell growth at 10^-6 M by sulforhodamine B assay; settings: read-out: Activity
[12] = test system: MDA-MB-435; assay: Growth inhibition of human MDA-MB-435 cells by sulforhodamine B assay
[13] = test system: SNB-19; assay: Growth inhibition of human SNB19 cells assessed as cell growth at 10^-4 M by sulforhodamine B assay; settings: read-out: Activity
[14] = test system: MCF7; assay: Growth inhibition of human MCF7 cells assessed as cell growth at 10^-4 M by sulforhodamine B assay; settings: read-out: Activity
[15] = test system: COLO 205; assay: Growth inhibition of human COLO205 cells assessed as cell growth at 10^-7 M by sulforhodamine B assay; settings: read-out: Activity
[16] = test system: MCF7; assay: Growth inhibition of human MCF7 cells assessed as cell growth at 10^-8 M by sulforhodamine B assay; settings: read-out: Activity
[17] = test system: KM12; assay: Growth inhibition of human KM12 cells assessed as cell growth at 10^-6 M by sulforhodamine B assay; settings: read-out: Activity
[18] = test system: HOP-92; assay: Growth inhibition of human HOP92 cells assessed as cell growth at 10^-6 M by sulforhodamine B assay; settings: read-out: Activity
[19] = test system: SW-620; assay: Growth inhibition of human SW620 cells assessed as cell growth at 10^-4 M by sulforhodamine B assay; settings: read-out: Activity
[20] = test system: HCT-116; assay: Growth inhibition of human HCT116 cells assessed as cell growth at 10^-7 M by sulforhodamine B assay; settings: read-out: Activity
[21] = test system: HT-29; assay: Growth inhibition of human HT-29 cells assessed as cell growth at 10^-8 M by sulforhodamine B assay; settings: read-out: Activity
[22] = test system: OVCAR-8; assay: Growth inhibition of human OVCAR8 cells assessed as cell growth at 10^-6 M by sulforhodamine B assay; settings: read-out: Activity
[23] = test system: NCI-H226; assay: Growth inhibition of human NCI-H226 cells assessed as cell growth at 10^-6 M by sulforhodamine B assay; settings: read-out: Activity
[24] = test system: SK-MEL-28; assay: Growth inhibition of human SK-MEL-28 cells assessed as cell growth at 10^-6 M by sulforhodamine B assay; settings: read-out: Activity
[25] = test system: UACC-257; assay: Growth inhibition of human UACC257 cells assessed as cell growth at 10^-6 M by sulforhodamine B assay; settings: read-out: Activity
[26] = Growth inhibition of human NCI-ADR-RES cells by sulforhodamine B assay
[27] = test system: IGROV-1; assay: Growth inhibition of human IGROV1 cells assessed as cell growth at 10^-8 M by sulforhodamine B assay; settings: read-out: Activity
[28] = test system: SN12C; assay: Growth inhibition of human SN12C cells assessed as cell growth at 10^-4 M by sulforhodamine B assay; settings: read-out: Activity
[29] = test system: TK-10; assay: Growth inhibition of human TK10 cells assessed as cell growth at 10^-7 M by sulforhodamine B assay; settings: read-out: Activity
[30] = test system: SNB-75; assay: Growth inhibition of human SNB75 cells assessed as cell growth at 10^-4 M by sulforhodamine B assay; settings: read-out: Activity
[31] = test system: HOP-92; assay: Growth inhibition of human HOP92 cells assessed as cell growth at 10^-4 M by sulforhodamine B assay; settings: read-out: Activity
[32] = test system: K562; assay: Growth inhibition of human K562 cells assessed as cell growth at 10^-6 M by sulforhodamine B assay; settings: read-out: Activity
[33] = test system: SN12C; assay: Growth inhibition of human SN12C cells assessed as cell growth at 10^-8 M by sulforhodamine B assay; settings: read-out: Activity
[34] = test system: ACHN; assay: Growth inhibition of human ACHN cells assessed as cell growth at 10^-7 M by sulforhodamine B assay; settings: read-out: Activity
[35] = test system: PC-3; assay: Growth inhibition of human PC3 cells assessed as cell growth at 10^-6 M by sulforhodamine B assay; settings: read-out: Activity
[36] = test system: COLO 205; assay: Growth inhibition of human COLO205 cells by sulforhodamine B assay
[37] = test system: ACHN; assay: Growth inhibition of human ACHN cells assessed as cell growth at 10^-6 M by sulforhodamine B assay; settings: read-out: Activity
[38] = test system: HCT-15; assay: Growth inhibition of human HCT15 cells assessed as cell growth at 10^-7 M by sulforhodamine B assay; settings: read-out: Activity
[39] = test system: SN12C; assay: Growth inhibition of human SN12C cells assessed as cell growth at 10^-7 M by sulforhodamine B assay; settings: read-out: Activity
[40] = test system: A549; assay: Growth inhibition of human A549/ATCC cells assessed as cell growth at 10^-8 M by sulforhodamine B assay; settings: read-out: Activity
[41] = test system: CAKI-1; assay: Growth inhibition of human CAKI-1 cells assessed as cell growth at 10^-4 M by sulforhodamine B assay; settings: read-out: Activity
[42] = test system: UACC-257; assay: Growth inhibition of human UACC257 cells by sulforhodamine B assay
[43] = test system: SF-268; assay: Growth inhibition of human SF268 cells assessed as cell growth at 10^-7 M by sulforhodamine B assay; settings: read-out: Activity
[44] = read-out: LC50 (the source's name)
[45] = read-out: pLC50 (the source's name) (converted)

With `CC(C)=CC(=O)O[C@@H]1CC(C)(C)C[C@H]2C3=CC[C@@H]4[C@@]5(C)CCC(=O)C(C)(C)[C@@H]5CC[C@@]4(C)[C@]3(C)CC[C@@]12C(=O)O` the growth at 0.01 µM [1] was 96%, the growth at 0.01 µM [2] was 93% and the growth at 100 µM [3] was -69%. For the same compound, the growth at 0.1 µM [4] was 88%, the GI50 ([5]; read-out: GI50) was 3.75 µM and the CC50 [5, 44] was greater than 100 µM. For the same compound, the TGI ([5]; read-out: TGI) was 33.8 µM, the GI50 ([5]; read-out: pGI50 (converted)) was 3.72 µM and the CC50 [5, 45] was greater than 100 µM. It also gave a TGI ([5]; read-out: pTGI (converted)) of 33.9 µM, a growth at 1 µM [6] of 73% and a GI50 ([7]; read-out: GI50) of 3.81 µM. It also gave a CC50 [7, 44] greater than 100 µM, a TGI ([7]; read-out: TGI) greater than 100 µM and a GI50 ([7]; read-out: pGI50 (converted)) of 3.8 µM. The CC50 [7, 45] was greater than 100 µM, the TGI ([7]; read-out: pTGI (converted)) was greater than 100 µM and the growth at 0.1 µM [8] was 101%. It also gave a growth at 100 µM [9] of -25%, a growth at 100 µM [10] of -37% and a growth at 1 µM [11] of 63%. The GI50 ([12]; read-out: GI50) was 6.22 µM, the CC50 [12, 44] was greater than 100 µM and the TGI ([12]; read-out: TGI) was greater than 100 µM. It also gave a GI50 ([12]; read-out: pGI50 (converted)) of 6.17 µM, a CC50 [12, 45] greater than 100 µM and a TGI ([12]; read-out: pTGI (converted)) greater than 100 µM. It also gave a growth at 100 µM [13] of 7%, a growth at 100 µM [14] of 2% and a growth at 0.1 µM [15] of 103%. The growth at 0.01 µM [16] was 87%, the growth at 1 µM [17] was 48% and the growth at 1 µM [18] was 69%. For the same compound, the growth at 100 µM [19] was -22%, the growth at 0.1 µM [20] was 98% and the growth at 0.01 µM [21] was 101%. For the same compound, the growth at 1 µM [22] was 79%, the growth at 1 µM [23] was 81% and the growth at 1 µM [24] was 103%. The growth at 1 µM [25] was 83%, the GI50 ([26]; read-out: GI50) was 3.75 µM and the CC50 [26, 44] was greater than 100 µM. The TGI ([26]; read-out: TGI) was greater than 100 µM, the GI50 ([26]; read-out: pGI50 (converted)) was 3.72 µM and the CC50 [26, 45] was greater than 100 µM. It also gave a TGI ([26]; read-out: pTGI (converted)) greater than 100 µM, a growth at 0.01 µM [27] of 103% and a growth at 100 µM [28] of -38%. For the same compound, the growth at 0.1 µM [29] was 93%, the growth at 100 µM [30] was -31% and the growth at 100 µM [31] was -50%. It also gave a growth at 1 µM [32] of 75%, a growth at 0.01 µM [33] of 99% and a growth at 0.1 µM [34] of 92%. It also gave a growth at 1 µM [35] of 56%, a GI50 ([36]; read-out: GI50) of 3.61 µM and an LC50 ([36]; read-out: LC50) of 49.1 µM. It also gave a TGI ([36]; read-out: TGI) of 12.3 µM, a GI50 ([36]; read-out: pGI50 (converted)) of 3.63 µM and an LC50 ([36]; read-out: pLC50 (converted)) of 49 µM. It also gave a TGI ([36]; read-out: pTGI (converted)) of 12.3 µM, a growth at 1 µM [37] of 73% and a growth at 0.1 µM [38] of 86%. For the same compound, the growth at 0.1 µM [39] was 96%, the growth at 0.01 µM [40] was 93% and the growth at 100 µM [41] was -2%. The GI50 ([42]; read-out: GI50) was 4.98 µM, the CC50 [42, 44] was greater than 100 µM and the TGI ([42]; read-out: TGI) was 50.6 µM. For the same compound, the GI50 ([42]; read-out: pGI50 (converted)) was 5.01 µM, the CC50 [42, 45] was greater than 100 µM and the TGI ([42]; read-out: pTGI (converted)) was 50.1 µM. The growth at 0.1 µM [43] was 94%.
